Laboratory results: publication PMC10298275, “Antiproliferative Activity and Impact on Human Gut Microbiota of New O-Alkyl Derivatives of Naringenin and Their Oximes” (International Journal of Molecular Sciences, 2023)
≈ marks a conversion by molar mass, not a printed value. Like-named read-outs stand apart in the source and are kept apart here.

What was measured:
[1] = SRB assay, cytotoxicity; format: cell-based, human; details: human, HT-29 cells; HT-29, SRB, 24 h exposure, three independent repeats; read-out: Cytotoxicity (IC50 ± SD)
Procedure: (§1) The HT-29 cells (ATCC, Manassas, VA, USA) were cultured within α-MEM (IIET PAS, Wrocław, Poland) supplemented with 10% fetal bovine serum (Sigma, St. Louis, MO, USA), antimycotic (100 μg/mL penicillin, 100 μg/mL streptomycin and 0.25 μg/mL amphotericin) (Sigma) and 2 mM glutamine (Sigma). The 3T3-L1 cells (ATCC, Manassas, VA, USA) were cultivated using DMEM high-glucose medium (IIET PAS, Wrocław, Poland) supplemented as above. Both cell lines were cultured at 37 °C in an atmosphere of 5% CO2.
(§2) The sulforhodamine B (SRB) assay was performed according to a previously published protocol. Briefly, 1 × 10^4 HT-29 or 5 × 10^3 3T3-L1 cells were seeded into 96-well plates. After attaching to the plate surface, the cells were incubated with 100, 75, 50, 25, 10 or 1 µg/mL of the investigated compounds for 24 h. After this time, proteins were precipitated with trichloroacetic acid and stained with SRB. The absorbance was measured at 560 nm using a GloMax Discover Microplate Reader (Promega, Madison, WI, USA).

[2] = tested on: Escherichia coli K12; assay: MIC, microdilution method; format: cell-based; details: Escherichia coli; E. coli K12; MHB, 18 h, 37 °C; tested 512 to 1 µg/mL; read-out: MIC
Procedure: (§3) Non-pathogenic reference strains representing the intestinal microbiome were used for the studies: Escherichia coli K12, Staphylococcus aureus ATCC 25923 and Enterococcus faecalis ATCC 29212. All strains were obtained from the collection of the Department of Microbiology at the Medical University of Wrocław.
(§4) The strains were received from the museum (−80 °C) and grown in tryptic soy broth (TSB, OXOID, Basingstoke, UK) under continuous shaking conditions (MaxQTM6000 incubator shaker, Thermo Scientific, Waltham, MA, USA) at 125 rpm at 37 °C. Then, they were moved to the growth media, namely tryptic soy agar (TSA, OXOID, Basingstoke, UK) and MacConkey agar (MC, Millipore, Darmstadt, Germany) for S. aureus or E. faecalis and E. coli, respectively.
(§5) A fresh 18–24 h culture was used for each study. For this purpose, a culture with a density of 1.5 × 10^8 CFU/mL in Mueller–Hinton broth (MHB, OXOID, Basingstoke, UK) was prepared and used for further microdilution studies.
(§6) The antimicrobial activity of the O-alkyl derivatives of naringenin and their oximes was tested in vitro using the microdilution method, showing the minimum inhibitory concentration (MIC), in accordance with the recommendations of the European Antimicrobial Susceptibility Testing Committee EUCAST [44]. MICs were determined in 96-well microdilution plates. The tests were carried out in MHB medium. The O-alkyl derivatives of naringenin and their oximes were tested in the concentration range of 512 to 1 µg/mL in a geometric process in MHB medium. The final concentration of the test strains in each test well was 5 × 10^5 CFU/mL. MICs were read after 18 h (for E. coli and S. aureus) and 24 h (for E. faecalis) incubation at 37 °C.
(§7) A strain growth control (tested strain in medium), background control for tested compounds (naringenin derivatives in MHB), medium control (only pure MHB) and compound solvent control (DMSO at test compound concentration, strain and MHB) were set for each experiment. Each test was set up with three independent experiments, each as three separate replicates.
(§8) The […], OD600, was measured in a plate reader (ASYS UVM340, BIOCHROM Ltd., Cambridge, UK). The background control of the tested compounds and the clean medium were included in the absorbance results.

[3] = tested on: Enterococcus faecalis ATCC 29212; assay: MIC, microdilution method; format: cell-based; details: E. faecalis ATCC 29212, MHB, 24 h, 37 °C, tested 512 to 1 µg/mL
Procedure: as §3, §4, §5, §6, §7, §8

[4] = tested on: Staphylococcus aureus ATCC 25923; assay: MIC, microdilution method; format: cell-based; details: Staphylococcus aureus, ATCC25923; S. aureus ATCC 25923; MHB, 18 h, 37 °C; tested 512 to 1 µg/mL; read-out: MIC
Procedure: as §3, §4, §5, §6, §7, §8

[5] = tested on: HT-29 cells; assay: MTT assay, cell viability; format: cell-based, human; details: 24 h; for effect on colon adenocarcinoma cells (viability, MTT): HT-29, highest concentration 100 µg/mL; for reduction in cell viability: HT-29, MTT, 10 µg/mL dose
Procedure: as §1
First, 1 × 10^4 HT-29 cells or 5 × 10^3 3T3-L1 cells were seeded into a 96-well plate and incubated for one night. Then, cells were treated with different concentrations of the investigated compounds within 24 h. Afterwards, the medium was replaced with a fresh medium containing 0.5 mg/mL of 3-(4,5-dimethylthiazol-2-yl)-2,5-diphenyl-2H-tetrazolium bromide (MTT, Sigma) and incubated for 2 h at 37 °C. After removing the medium, the formazan salts were dissolved in dimethyl sulfoxide (DMSO, Sigma), and the absorbance of the solution was measured at 560 nm using a plate reader.

[6] = tested on: Escherichia coli K12; assay: MBC assay; format: cell-based; details: Escherichia coli; E. coli K12; read-out: MBC
Procedure: (§9) The minimum bactericidal concentration (MBC) was tested for all naringenin derivatives. First, 10 µL of medium was taken from the plate, on which the MIC was determined for the MIC value, the value below and the two values above. This volume was transferred to TSA or MC agar. After 18–24 h (depending on strain) incubation at 37 °C, colonies were counted. The concentration of test compounds at which no bacterial growth was observed was defined as the MBC value. Each experiment was repeated 3 times.

[7] = tested on: Enterococcus faecalis ATCC 29212; assay: MBC assay; format: cell-based; details: Enterococcus faecalis, ATCC29212; E. faecalis ATCC 29212; read-out: MBC
Procedure: as §9

[8] = tested on: Staphylococcus aureus ATCC 25923; assay: MBC assay; format: cell-based; details: Staphylococcus aureus, ATCC25923; S. aureus ATCC 25923; read-out: MBC
Procedure: as §9

[9] = SRB assay, cytotoxicity; format: cell-based, mouse; details: mouse, 3T3-L1 cells; 3T3-L1, SRB, 24 h exposure, three independent repeats; read-out: Cytotoxicity (IC50 ± SD)
Procedure: as §1, §2

[10] = tested on: HT-29 cells; assay: SRB assay, cytotoxicity; format: cell-based, human; details: HT-29, SRB, up to 100 µg/mL
Procedure: as §1, §2

[11] = Enterococcus faecalis, ATCC29212, read-out: MIC

| MIC [2] | MIC [3, 11] | MIC [4] | melting point | MIC [3] | SMILES | IC50 at 24 h [1] | effect on colon adenocarcinoma cells (viability, MTT) [5] | MBC [6] | MBC [7] | MBC [8] | IC50 at 24 h [9] | reduction in cell viability [5] | effect on the proliferation of the HT-29 cell line [10] |
| --- | --- | --- | --- | --- | --- | --- | --- | --- | --- | --- | --- | --- | --- |
| > 512 µg/mL | 16 µg/mL (≈ 44.9 µM) | 16 µg/mL (≈ 44.9 µM) |  |  | CCCCCCOc1cc(O)c2c(c1)O[C@H](c1ccc(O)cc1)CC2=O [A1, 7-O-hexylnaringenin] | 14.3 ± 0.84 µg/mL (≈ 40.1 µM) | completely inhibited | > 512 µg/mL | > 512 µg/mL | > 512 µg/mL | 10.8 ± 1.1 µg/mL (≈ 30.4 µM) |  |  |
| > 512 µg/mL | 32 µg/mL (≈ 86.4 µM) | 16 µg/mL (≈ 43.2 µM) | 114 to 115 °C |  | CCCCCCCOc1cc(O)c2c(c1)O[C@H](c1ccc(O)cc1)CC2=O [A3, 7-O-Heptylnaringenin] | 14.2 ± 0.56 µg/mL (≈ 38.3 µM) | completely inhibited | > 512 µg/mL | > 512 µg/mL | > 512 µg/mL | 7.61 ± 1.2 µg/mL (≈ 20.5 µM) |  |  |
| > 512 µg/mL | 16 µg/mL (≈ 41.6 µM) | 8 µg/mL (≈ 20.8 µM) | 111 to 113 °C |  | CCCCCCCCOc1cc(O)c2c(c1)O[C@H](c1ccc(O)cc1)CC2=O [A5, 7-O-Octylnaringenin] | 14.63 ± 0.13 µg/mL (≈ 38.1 µM) | completely inhibited | > 512 µg/mL | > 512 µg/mL | > 512 µg/mL | 8.86 ± 0.67 µg/mL (≈ 23 µM) |  |  |
| > 512 µg/mL | 16 µg/mL (≈ 40.2 µM) | 16 µg/mL (≈ 40.2 µM) | 115 to 116 °C |  | CCCCCCCCCOc1cc(O)c2c(c1)O[C@H](c1ccc(O)cc1)CC2=O [A7, 7-O-Nonylnaringenin] | 15 ± 0.41 µg/mL (≈ 37.7 µM) | completely inhibited | > 512 µg/mL | > 512 µg/mL | > 512 µg/mL | 8.65 ± 0.71 µg/mL (≈ 21.7 µM) |  |  |
| > 512 µg/mL | 16 µg/mL (≈ 43.1 µM) | 8 µg/mL (≈ 21.5 µM) |  |  | CCCCCCOc1cc(O)c2c(c1)O[C@H](c1ccc(O)cc1)CC2=NO [B1, 7-O-hexylnaringenin oxime] | 11.3 ± 1.63 µg/mL (≈ 30.5 µM) |  | > 512 µg/mL | 256 µg/mL (≈ 689 µM) | 32 µg/mL (≈ 86.2 µM) | 8.3 ± 0.72 µg/mL (≈ 22.3 µM) | more than 50% |  |
| > 512 µg/mL | 16 µg/mL (≈ 41.5 µM) | 64 µg/mL (≈ 166 µM) | 186 to 187 °C |  | CCCCCCCOc1cc(O)c2c(c1)O[C@H](c1ccc(O)cc1)CC2=NO [B3, 7-O-Heptylnaringenin oxime] | 11.3 ± 0.81 µg/mL (≈ 29.3 µM) |  | > 512 µg/mL | 512 µg/mL (≈ 1330 µM) | 128 µg/mL (≈ 332 µM) | 7.77 ± 1.11 µg/mL (≈ 20.2 µM) | more than 50% |  |
| > 512 µg/mL | > 512 µg/mL | > 512 µg/mL | 82 to 83 °C | >512 (>512) µg/mL | CCCCCCCOc1ccc([C@@H]2CC(=NO)c3c(O)cc(OCCCCCCC)cc3O2)cc1 [B4, 7,4′-Di-O-heptylnaringenin oxime] | > 100 µg/mL |  | > 512 µg/mL | > 512 µg/mL | > 512 µg/mL | > 100 µg/mL |  | no effect on the proliferation |
| > 512 µg/mL | 16 µg/mL (≈ 40.1 µM) | 256 µg/mL (≈ 641 µM) | 183 to 185 °C |  | CCCCCCCCOc1cc(O)c2c(c1)O[C@H](c1ccc(O)cc1)CC2=NO [B5, 7-O-Octylnaringenin oxime] | 9.96 ± 1.13 µg/mL (≈ 24.9 µM) |  | > 512 µg/mL | 256 µg/mL (≈ 641 µM) | > 512 µg/mL | 7.1 ± 1.57 µg/mL (≈ 17.8 µM) | more than 50% |  |
| > 512 µg/mL | 8 µg/mL (≈ 19.3 µM) | 128 µg/mL (≈ 310 µM) | 176 to 178 °C |  | CCCCCCCCCOc1cc(O)c2c(c1)O[C@H](c1ccc(O)cc1)CC2=NO [B7, 7-O-Nonylnaringenin oxime] | 11.2 ± 1.27 µg/mL (≈ 27.2 µM) |  | > 512 µg/mL | > 512 µg/mL | > 512 µg/mL | 6.08 ± 0.64 µg/mL (≈ 14.7 µM) | more than 50% |  |
